Data from US9718821B2, “Pyridopyrimidinone inhibitors of kinases” (AbbVie Inc., priority 2012, dated 2017).

Molecular target: T1, GST-tagged-Wee1 kinase (Homo sapiens, UniProt P30291)
T1 construct: purchased Carnabio 05-177
Test: Wee1 time-resolved fluorescence equilibrium binding assay (displacement of Oregon Green-labeled ATP-competitive kinase probe)
Details: enzyme binding data; GST-tagged-Wee1 kinase 2 nM, fluorescent probe 300 nM, inhibitor 0.003 to 10 micromolar, 1 hour incubation; read-out: Wee-1 binding (Ki nM)
Method: Wee1 kinase was assayed using a time-resolved fluorescence equilibrium binding assay monitoring displacement of a rapidly reversible Oregon Green-labeled ATP-competitive kinase probe (N-(2-(2-(2-(4-(4-(5-chloro-4-(2-(1-hydroxycyclobutyl)thiazol-5-yl)-1H-pyrrolo[2,3-b]pyridin-2-yl)phenyl)piperazin-1-yl)ethoxy)ethoxy)ethyl)-2′,7′-difluoro-3′,6′-dihydroxy-3-oxo-3H-spiro[isobenzofuran-1,9′-xanthene]-5-carboxamide) by competitive Wee1 inhibitors.
Table 1 depicts enzyme binding data (Ki)for exemplary compounds.

T1 sequence (P30291 whole entry): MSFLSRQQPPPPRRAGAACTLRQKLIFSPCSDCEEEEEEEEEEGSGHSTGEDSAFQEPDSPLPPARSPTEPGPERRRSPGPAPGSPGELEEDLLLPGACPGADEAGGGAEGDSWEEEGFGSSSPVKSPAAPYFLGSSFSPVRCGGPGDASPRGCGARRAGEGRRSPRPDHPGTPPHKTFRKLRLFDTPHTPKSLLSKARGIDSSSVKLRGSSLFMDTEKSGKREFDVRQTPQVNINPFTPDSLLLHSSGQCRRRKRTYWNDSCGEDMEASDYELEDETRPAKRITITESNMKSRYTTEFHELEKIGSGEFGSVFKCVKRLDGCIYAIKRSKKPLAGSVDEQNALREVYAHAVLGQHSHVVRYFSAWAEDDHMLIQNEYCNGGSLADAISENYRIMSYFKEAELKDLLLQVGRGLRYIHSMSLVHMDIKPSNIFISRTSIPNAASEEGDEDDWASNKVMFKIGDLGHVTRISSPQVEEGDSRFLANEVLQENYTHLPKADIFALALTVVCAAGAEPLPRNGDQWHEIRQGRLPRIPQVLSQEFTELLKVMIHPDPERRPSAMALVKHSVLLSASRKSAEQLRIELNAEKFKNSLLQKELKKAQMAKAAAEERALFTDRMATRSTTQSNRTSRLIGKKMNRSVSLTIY

Structure (SMILES) | Ki [nM]
Cc1cccc(C)c1-n1cc(C)c2nc(Nc3ccc4c(c3)CN(C)CC43CC3)ncc2c1=O [Example 88, 6-(2,6-dimethylphenyl)-8-methyl-2-[(2′-methyl-2′,3′-dihydro-1′H-spiro[cyclopropane-1,4′-isoquinolin]-7′-yl)amino]pyrido[4,3-d]pyrimidin-5(6H)-one] | 0.544
C=Cc1cn(-c2c(F)cccc2Cl)c(=O)c2cnc(Nc3ccc(N4CCC(N(C)C)CC4)cc3)nc12 [Example 60, 6-(2-chloro-6-fluorophenyl)-2-({4-[4-(dimethylamino)piperidin-1-yl]phenyl}amino)-8-ethenylpyrido[4,3-d]pyrimidin-5(6H)-one] | 0.5
Cc1cccc(C)c1-n1cc(C)c2nc(Nc3ccc(N4CCC(N(C)C)CC4)cc3)ncc2c1=O [Example 89, 2-({4-[4-(dimethylamino)piperidin-1-yl]phenyl}amino)-6-(2,6-dimethylphenyl)-8-methylpyrido[4,3-d]pyrimidin-5(6H)-one] | 0.897
Cc1cn(-c2c(F)cccc2Cl)c(=O)c2cnc(Nc3ccc(C4CCN(C)CC4)cc3)nc12 [Example 71, 6-(2-chloro-6-fluorophenyl)-8-methyl-2-{[4-(1-methylpiperidin-4-yl)phenyl]amino}pyrido[4,3-d]pyrimidin-5(6H)-one] | 1.2
C=Cc1cn(-c2c(F)cccc2Cl)c(=O)c2cnc(Nc3ccc(C4CCN(C)CC4)cc3)nc12 [Example 61, 6-(2-chloro-6-fluorophenyl)-8-ethenyl-2-{[4-(1-methylpiperidin-4-yl)phenyl]amino}pyrido[4,3-d]pyrimidin-5(6H)-one] | 0.3
C=Cc1cn(-c2c(F)cccc2Cl)c(=O)c2cnc(Nc3ccc4c(c3)CN(C)CC43CC3)nc12 [Example 63, 6-(2-chloro-6-fluorophenyl)-8-ethenyl-2-[(2′-methyl-2′,3′-dihydro-1′H-spiro[cyclopropane-1,4′-isoquinolin]-7′-yl)amino]pyrido[4,3-d]pyrimidin-5(6H)-one] | 0.9
Cc1cn(-c2c(F)cccc2Cl)c(=O)c2cnc(Nc3ccc4c(c3)CN(C)CC4(C)C)nc12 [Example 70, 6-(2-chloro-6-fluorophenyl)-8-methyl-2-[(2,4,4-trimethyl-1,2,3,4-tetrahydroisoquinolin-7-yl)amino]pyrido[4,3-d]pyrimidin-5(6H)-one] | 1.6
Cc1cn(-c2c(F)cccc2Cl)c(=O)c2cnc(Nc3ccc4c(c3)CCNC4)nc12 [Example 72, 6-(2-chloro-6-fluorophenyl)-8-methyl-2-(1,2,3,4-tetrahydroisoquinolin-6-ylamino)pyrido[4,3-d]pyrimidin-5(6H)-one] | 5.1
O=c1c2cnc(Nc3ccc4c(c3)CNCC43CC3)nc2c(C(F)F)cn1-c1c(Cl)cccc1Cl [Example 86, 6-(2,6-dichlorophenyl)-8-(difluoromethyl)-2-(2′,3′-dihydro-1′H-spiro[cyclopropane-1,4′-isoquinolin]-7′-ylamino)pyrido[4,3-d]pyrimidin-5(6H)-one] | 0.305
Cc1cn(-c2c(Cl)cccc2Cl)c(=O)c2cnc(Nc3ccc(C4CCN(C)CC4)cc3)nc12 [Example 78, 6-(2,6-dichlorophenyl)-8-methyl-2-{[4-(1-methylpiperidin-4-yl)phenyl]amino}pyrido[4,3-d]pyrimidin-5(6H)-one] | 0.2
Cc1cn(-c2c(F)cccc2Cl)c(=O)c2cnc(Nc3ccc4c(c3)CC(N(C)C)C4)nc12 (stereo not drawn) [Example 68, 6-(2-chloro-6-fluorophenyl)-2-{[2-(dimethylamino)-2,3-dihydro-1H-inden-5-yl]amino}-8-methylpyrido[4,3-d]pyrimidin-5(6H)-one] | 0.9
O=c1c2cnc(Nc3ccc4c(c3)CNCC4)nc2c(C(F)F)cn1-c1c(Cl)cccc1Cl [Example 87, 6-(2,6-dichlorophenyl)-8-(difluoromethyl)-2-(1,2,3,4-tetrahydroisoquinolin-7-ylamino)pyrido[4,3-d]pyrimidin-5(6H)-one] | 0.254

The remaining lines, values ahead:

Ki [nM] | Structure (SMILES)
122 | Cc1cn(-c2ccccc2-c2cnco2)c(=O)c2cnc(Nc3ccc4c(c3)CNCC4)nc12 [Example 105, 8-methyl-6-[2-(1,3-oxazol-5-yl)phenyl]-2-(1,2,3,4-tetrahydroisoquinolin-7-ylamino)pyrido[4,3-d]pyrimidin-5(6H)-one]
0.4 | CN1Cc2cc(Nc3ncc4c(=O)n(-c5c(Cl)cccc5Cl)cc(CF)c4n3)ccc2C2(CC2)C1 [Example 113, 6-(2,6-dichlorophenyl)-8-(fluoromethyl)-2-[(2′-methyl-2′,3′-dihydro-1′H-spiro[cyclopropane-1,4′-isoquinolin]-7′-yl)amino]pyrido[4,3-d]pyrimidin-5 (6H)-one]
0.9 | Cc1cccc(F)c1-n1cc(C)c2nc(Nc3ccc4c(c3)CNCC4)ncc2c1=O [Example 103, 6-(2-fluoro-6-methylphenyl)-8-methyl-2-(1,2,3,4-tetrahydroisoquinolin-7-ylamino)pyrido[4,3-d]pyrimidin-5(6H)-one]
0.358 | O=c1c2cnc(Nc3ccc4c(c3)CCNC4)nc2c(C(F)F)cn1-c1c(Cl)cccc1Cl [Example 93, 6-(2,6-dichlorophenyl)-8-(difluoromethyl)-2-(1,2,3,4-tetrahydroisoquinolin-6-ylamino)pyrido[4,3-d]pyrimidin-5(6H)-one]
6.5 | Cc1cn(-c2c(Cl)cccc2Cl)c(=O)c2nnc(Nc3ccc4c(c3)CNCC4)nc12 [Example 134, 7-(2,6-dichlorophenyl)-5-methyl-3-(1,2,3,4-tetrahydroisoquinolin-7-ylamino)pyrido[4,3-e][1,2,4]triazin-8(7H)-one]
0.2 | CN(C)C1CCN(c2ccc(Nc3ncc4c(=O)n(-c5c(Cl)cccc5Cl)cc(CF)c4n3)cc2)CC1 [Example 111, 6-(2,6-dichlorophenyl)-2-({4-[4-(dimethylamino)piperidin-1-yl]phenyl}amino)-8-(fluoromethyl)pyrido[4,3-d]pyrimidin-5(6H)-one]
0.3 | Cc1cccc(Cl)c1-n1cc(C)c2nc(Nc3ccc4c(c3)CNCC4)ncc2c1=O [Example 127, 6-(2-chloro-6-methylphenyl)-8-methyl-2-(1,2,3,4-tetrahydroisoquinolin-7-ylamino)pyrido[4,3-d]pyrimidin-5(6H)-one]
242 | COC(=O)c1ccc(Cl)c(-n2cc(C)c3nc(Nc4ccc(N5CCC(N(C)C)CC5)cc4)ncc3c2=O)c1 [Example 108, methyl 4-chloro-3-[2-({4-[4-(dimethylamino)piperidin-1-yl]phenyl}amino)-8-methyl-5-oxopyrido[4,3-d]pyrimidin-6(5H)-yl]benzoate]
2 | CC(O)c1cn(-c2c(Cl)cccc2Cl)c(=O)c2cnc(Nc3ccc(N4CCN(C)CC4)cc3)nc12 (stereo not drawn) [Example 128, 6-(2,6-dichlorophenyl)-8-(1-hydroxyethyl)-2-{[4-(4-methylpiperazin-1-yl)phenyl]amino}pyrido[4,3-d]pyrimidin-5(6H)-one]
0.3 | Cc1cn(-c2c(Cl)cccc2Cl)c(=O)c2cnc(Nc3ccc(NC4CCN(C)C4)cc3)nc12 (stereo not drawn) [Example 125, 6-(2,6-dichlorophenyl)-8-methyl-2-({4[(1-methylpyrrolidin-3-yl)amino]phenyl}amino)pyrido[4,3-d]pyrimidin-5(6H)-one]
0.38 | O=c1c2cnc(Nc3ccc4c(c3)CC(N3CCCC3)C4)nc2c(C(F)F)cn1-c1c(Cl)cccc1Cl (stereo not drawn) [Example 95, 6-(2,6-dichlorophenyl)-8-(difluoromethyl)-2-{[2-(pyrrolidin-1-yl)-2,3-dihydro-1H-inden-5-yl]amino}pyrido[4,3-d]pyrimidin-5(6H)-one]
0.22 | Cc1cccc(Cl)c1-n1cc(C)c2nc(Nc3ccc(N4CCC(N(C)C)CC4)cc3)ncc2c1=O [Example 91, 6-(2-chloro-6-methylphenyl)-2-({4-[4-(dimethylamino)piperidin-1-yl]phenyl}amino)-8-methylpyrido[4,3-d]pyrimidin-5(6H)-one]
0.4 | Cc1cccc(C)c1-n1cc(C)c2nc(Nc3ccc4c(c3)CNCC4)ncc2c1=O [Example 126, 6-(2,6-dimethylphenyl)-8-methyl-2-(1,2,3,4-tetrahydroisoquinolin-7-ylamino)pyrido[4,3-d]pyrimidin-5(6H)-one]
0.6 | Cc1cccc(O)c1-n1cc(C)c2nc(Nc3ccc4c(c3)CNCC4)ncc2c1=O [Example 118, 6-(2-hydroxy-6-methylphenyl)-8-methyl-2-(1,2,3,4-tetrahydroisoquinolin-7-ylamino)pyrido[4,3-d]pyrimidin-5(6H)-one]
0.193 | Cc1cccc(Cl)c1-n1cc(C)c2nc(Nc3ccc4c(c3)CN(C)CC43CC3)ncc2c1=O [Example 90, 6-(2-chloro-6-methylphenyl)-8-methyl-2-[(2′-methyl-2′,3′-dihydro-1′H-spiro[cyclopropane-1,4′-isoquinolin]-7′-yl)amino]pyrido[4,3-d]pyrimidin-5(6H)-one]
0.4 | CN(C)C1Cc2ccc(Nc3ncc4c(=O)n(-c5c(Cl)cccc5Cl)cc(CF)c4n3)cc2C1 (stereo not drawn) [Example 112, 6-(2,6-dichlorophenyl)-2-{[2-(dimethylamino)-2,3-dihydro-1H-inden-5-yl]amino}-8-(fluoromethyl)pyrido[4,3-d]pyrimidin-5(6H)-one]
1.8 | Cc1cn(-c2c(Cl)cccc2Cl)c(=O)c2cnc(Nc3ccc(S(=O)(=O)CCN(C)C)cc3)nc12 [Example 96, 6-(2,6-dichlorophenyl)-2-[(4-{[2-(dimethylamino)ethyl]sulfonyl}phenyl)amino]-8-methylpyrido[4,3-d]pyrimidin-5(6H)-one]
0.2 | CN(C)CCCN1CCN(c2ccc(Nc3ncc4c(=O)n(-c5c(Cl)cccc5Cl)cc(CF)c4n3)cc2)CC1 [Example 140, 6-(2,6-dichlorophenyl)-2-[(4-{4-[3-(dimethylamino)propyl]piperazin-1-yl}phenyl)amino]-8-(fluoromethyl)pyrido[4,3-d]pyrimidin-5(6H)-one]
